Results from ChEMBL document CHEMBL3734655, “Identification of camphor derivatives as novel M2 ion channel inhibitors of influenza A virus” (Medchemcomm, 2015).
Calls of active or inactive are those of the source. The rule behind the calls is not given here.

Columns and labels:
Influenza A virus H3N2 [1] = assay: Antiviral activity against wild type M2 ion channel expressing Influenza A virus (A/Hong Kong/1968(H3N2)) infected in MDCK cells preincubated for 30 mins followed by viral infection measured after 72 hrs by CCK-8 assay; assay type: functional, organism-based; details: A/Hong Kong/1968, MDCK
[2] = Cytotoxicity against MDCK cells incubated for 72 hrs by CCK-8 assay; assay type: cell-based, Canis lupus familiaris; details: dog
Influenza A virus H3N2 [3] = assay: Potency index, ratio of amantadine IC50 to compound IC50 for wild type M2 ion channel expressing Influenza A virus (A/Hong Kong/1968(H3N2)) infected in MDCK cells; assay type: functional
Influenza A virus H3N2 [4] = assay: Antiviral activity against wild type Influenza A virus (A/Hong Kong/1968(H3N2)) infected in MDCK cells assessed as reduction in size and number of plaque at 0.2 uM after 2 to 3 days by crystal violet staining based assay; assay type: functional, organism-based
Influenza A virus H3N2 [5] = assay: Antiviral activity against wild type Influenza A virus (A/Hong Kong/1968(H3N2)) infected in MDCK cells assessed as reduction in size and number of plaque at 1 uM after 2 to 3 days by crystal violet staining based assay; assay type: functional, organism-based

Row | Compound | IC50 (Influenza A virus H3N2 [1]) [nM] | MCC at 72 h [2] [µM] | Ratio IC50 (Influenza A virus H3N2 [3]) | Activity (Influenza A virus H3N2 [4]) | Activity (Influenza A virus H3N2 [5])
1 | CC1(C)[C@H]2CC[C@](C)(C2)[C@H]1CN | 15700 | > 300 |  |  | 
2 | C[C@H]1[C@H](N)C[C@@H]2C[C@H]1C2(C)C | 120 | > 300 |  |  | 
3 | NC1CC2CCC1C2 (configuration not stated) | 17400 | > 300 |  |  | 
4 | N[C@H]1C[C@@H]2CC[C@H]1C2 | 12400 | > 300 |  |  | 
5 | C[C@H]1[C@H](CN)C[C@@H]2C[C@H]1C2(C)C | 2470 | > 300 |  |  | 
6 | C[C@H]1[C@H]([C@H](C)N)C[C@@H]2C[C@H]1C2(C)C | 1930 | > 300 |  |  | 
7 | C[C@@H](N)[C@H]1C[C@H]2CC[C@]1(C)C2(C)C.Cl | 100 | > 300 | 5 | Active | Active
8 | NC12CC3CC(CC(C3)C1)C2 [AMANTADINE] | 500 |  |  |  | 
9 | CC1(C)[C@@H]2CC[C@@]1(C)[C@@H](CN)C2 | 290 | > 300 |  |  | 
10 | CC1(C)[C@@H]2CC[C@@]1(C)[C@@H](N)C2 (relative stereo) | 490 | > 300 |  |  | 
